Experiment [1] concerns the target T1, BIR3 domain of human cIAP-1 (residues 267-363) (Homo sapiens, UniProt Q13490).
T1 construct: human cIAP-1 (residues 267-363) fused to a GST-tag; GST-tag (cleaved yes); made in house; host or cells: Escherichia coli
The experiment is described as follows: cIAP-1 in vitro competitive displacement binding assay (fluorescence polarization). A general note: Polarisation of emitted light reports the rotation of a fluorescent probe.

The target in experiment [2] is T2, BIR3 domain of human XIAP (residues 252-350) (Homo sapiens, UniProt P98170).
T2 construct: BIR3 domain of human XIAP (residues 252-350); His-tag (cleaved yes); made in house; host or cells: Escherichia coli
The experiment is described as follows: XIAP in vitro competitive displacement binding assay (fluorescence polarization). The following applies: percent inhibition (PI) at 0.04 μM; for Xiap IC50 or PI μM: 60 min, dihydrochloride, 0.04 µM; for inhibition at 0.04 µM: 1 h, read-out: Xiap IC50 or PI μM.

Experiment [3] has as its system EVSA-T (human breast carcinoma). In words: Anti-proliferative activity, Alamar Blue assay, EVSA-T. The format is cell-based.
Procedure: Anti-Proliferative Activity
The method is based on the ability of viable cells to reduce resazurin to its fluorescent product resorufin. For each proliferation assay cells are plated onto 96 well plates and allowed to recover for 16 hours prior to the addition of inhibitor compounds (in 0.1% DMSO v/v) for a further 72 hours. […] The anti-proliferative activities of compounds of the invention can be determined by measuring the ability of the compounds to inhibit growth in 3 cancer cell lines: • EVSA-T (human breast carcinoma) DSMZ cat. no.
Where [4] appears, read: EVSA-T cell line, 72 hours, Alamar Blue; dihydrochloride; read-out: EVSA-T prolif.
The mark [5] stands for this setting: Homo sapiens, EVSA-T; read-out: EC50 in EVSA-T cell line assays.
Setting [6] is: Homo sapiens, EVSA-T, 72 h, EVSA-T cell line, 72 hours, Alamar Blue; read-out: EVSA-T prolif.

Where a name gives a salt, the structure may show the parent alone. Read-outs that look alike come from different tables or passages of the source.

T2 sequence (P98170 252-350): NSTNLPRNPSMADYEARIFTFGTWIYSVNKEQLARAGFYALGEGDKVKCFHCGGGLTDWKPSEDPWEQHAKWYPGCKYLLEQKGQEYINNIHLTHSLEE
T1 sequence (Q13490 267-363): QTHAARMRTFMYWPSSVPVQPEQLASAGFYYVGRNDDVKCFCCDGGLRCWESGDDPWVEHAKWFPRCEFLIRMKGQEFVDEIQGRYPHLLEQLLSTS

Take `CCCC(O)c1cnc2c(c1)N(C(=O)CN1C[C@@H](C)NC[C@@H]1CN1Cc3ccccc3C1=O)CC2(C)C` (single isomer, unassigned) [Example 91, dihydrochloride]: the inhibition at 0.04 µM in experiment [1] (3 h, percent inhibition (PI) at 0.04 μM, read-out: cIAP1 IC50 or PI μM) came out at 53%. Further, the “Xiap IC50 or PI μM” value in experiment [2] is reported as 40%@0.04. Also, the EC50 in experiment [3] (setting [4]) amounted to 330 nM.

Regarding `CCC1CN(C[C@H]2CN[C@H](C)CN2CC(=O)N2CC(C)(C)c3ncc([C@@H](O)c4ccc(F)cc4)cc32)C(=O)CO1` (single isomer, unassigned) [Example 111, (R or S)-6-ethyl-4-{[(2R,5R)-1-(2-{6-[(S)-(4-Fluorophenyl)(hydroxy)methyl]-3,3-dimethyl-1H,2H,3H-pyrrolo[3,2-b]pyridin-1-yl}-2-oxoethyl)-5-methylpiperazin-2-yl]methyl}morpholin-3-one dihydrochloride], the “cIAP1 IC50 or PI μM” value in experiment [1] (percent inhibition (PI) at […], 180 min, dihydrochloride, […]) was found to be 62%@0.012. The “Xiap IC50 or PI μM” value in experiment [2] amounted to 68%@0.04. Moreover, the EC50 in experiment [3] (setting [4]) was 77 nM; in experiment [3] (setting [5]) it was below 1000 nM.

Take `C[C@@H]1CN(CC(=O)N2CC(C)(C)c3ncc([C@@H](O)c4ccc(F)cc4)cc32)[C@@H](CN2Cc3ccccc3C2=O)CN1` [Example 96, 2-{[(2R,5R)-1-(2-{6-[(S)-(4-Fluorophenyl)(hydroxy)methyl]-3,3-dimethyl-1H,2H,3H-pyrrolo[3,2-b]pyridin-1-yl}-2-oxoethyl)-5-methylpiperazin-2-yl]methyl}-2,3-dihydro-1H-isoindol-1-one]: in experiment [2], the inhibition at 0.04 µM stood at 62%. The EC50 in experiment [3] (setting [6]) was 31 nM; in experiment [3] (setting [5]) it was below 1000 nM.

As to `C[C@@H]1CN(CC(=O)N2CC(C)(C)c3ncc(Cc4ccc(F)cc4F)cc32)[C@@H](CN2C[C@H](C)N(C)CC2=O)CN1` [Example 98, (5S)-1-{[(2R,5R)-1-(2-{6-[(2,4-Difluorophenyl)methyl]-3,3-dimethyl-1H,2H,3H-pyrrolo[3,2-b]pyridin-1-yl}-2-oxoethyl)-5-methylpiperazin-2-yl]methyl}-4,5-dimethylpiperazin-2-one dihydrochloride], the inhibition at 0.04 µM in experiment [2] came to 39%. For the same molecule, the values for the EC50 in experiment [3] (setting [6]) and in experiment [3] (setting [5]) were 3.5 nM and below 1000 nM, respectively.

Take `CCCC(F)(F)c1cc2c(nn1)C(C)(C)CN2C(=O)CN1C[C@@H](C)NC[C@@H]1CN1Cc2ccc(F)cc2C1=O` [Example 99, 2-{[(2R,5R)-1-{2-[3-(1,1-Difluorobutyl)-7,7-dimethyl-5H,6H,7H-pyrrolo[3,2-c]pyridazin-5-yl]-2-oxoethyl}-5-methylpiperazin-2-yl]methyl}-6-fluoro-2,3-dihydro-1H-isoindol-1-one dihydrochloride]: the inhibition at 0.04 µM in experiment [2] came out at 65%. Further, the EC50 in experiment [3] (setting [6]) is 6.6 nM; in experiment [3] (setting [5]), below 1000 nM.

Take `C[C@@H]1CN(CC(=O)N2CC(C)(C)c3ncc(Cc4ccc(F)cc4F)cc32)[C@@H](CN2C(=O)CO[C@@H](C)[C@H]2C)CN1` [Example 100, (5R,6S)-4-{[(2R,5R)-1-(2-{6-[(2,4-Difluorophenyl)methyl]-3,3-dimethyl-1H,2H,3H-pyrrolo[3,2-b]pyridin-1-yl}-2-oxoethyl)-5-methylpiperazin-2-yl]methyl}-5,6-dimethylmorpholin-3-one dihydrochloride]: the inhibition at 0.04 µM in experiment [2] was 41%. Further, the EC50 is 1.9 nM in experiment [3] (setting [6]) and below 1000 nM in experiment [3] (setting [5]).

`COC[C@@H]1CN(C[C@H]2CN[C@H](C)CN2CC(=O)N2CC(C)(C)c3ncc(Cc4ccc(F)cc4)cc32)C(=O)CO1` [Example 102, (6S)-4-{[(2R,5R)-1-(2-{6-[(4-Fluorophenyl)methyl]-3,3-dimethyl-1H,2H,3H-pyrrolo[3,2-b]pyridin-1-yl}-2-oxoethyl)-5-methylpiperazin-2-yl]methyl}-6-(methoxymethyl)morpholin-3-one dihydrochloride]: the inhibition at 0.04 µM in experiment [2] was determined as 51%. Besides, the EC50 in experiment [3] (setting [6]) is 6.9 nM; in experiment [3] (Homo sapiens, EVSA-T, read-out: EC50 in EVSA-T cell line assays), below 1000 nM.

For `C[C@@H]1CN(CC(=O)N2CC(C)(C)c3ncc(Cc4ccc(F)cc4F)cc32)[C@@H](CN2Cc3cc(O)ccc3C2=O)CN1` [Example 105, 2-{[(2R,5R)-1-(2-{6-[(2,4-Difluorophenyl)methyl]-3,3-dimethyl-1H,2H,3H-pyrrolo[3,2-b]pyridin-1-yl}-2-oxoethyl)-5-methylpiperazin-2-yl]methyl}-5-hydroxy-2,3-dihydro-1H-isoindol-1-one dihydrochloride], the inhibition at 0.04 µM in experiment [2] was determined as 90%. Moreover, the EC50 was 6.5 nM in experiment [3] (setting [6]) and below 1000 nM in experiment [3] (setting [5]).

On to `C[C@@H]1CN(CC(=O)N2CC(C)(C)c3ncc(Cc4ccc(F)cc4F)cc32)[C@@H](CN2Cc3cc(C#N)ccc3C2=O)CN1` [Example 106, 2-{[(2R,5R)-1-(2-{6-[(2,4-Difluorophenyl)methyl]-3,3-dimethyl-1H,2H,3H-pyrrolo[3,2-b]pyridin-1-yl}-2-oxoethyl)-5-methylpiperazin-2-yl]methyl}-1-oxo-2,3-dihydro-1H-isoindole-5-carbonitrile dihydrochloride], for which the inhibition at 0.04 µM in experiment [2] turned out to be 90%. For the same molecule, the EC50 was 2.1 nM in experiment [3] (setting [6]) and below 1000 nM in experiment [3] (setting [5]).

Turning to `C[C@@H]1CN(CC(=O)N2CC(C)(C)c3cnc(Cc4ccc(F)cc4)cc32)[C@@H](CN2C[C@H](C)N(C)CC2=O)CN1` [Example 107, (5S)-1-{[(2R,5R)-1-(2-{6-[(4-Fluorophenyl)methyl]-3,3-dimethyl-1H,2H,3H-pyrrolo[3,2-c]pyridin-1-yl}-2-oxoethyl)-5-methylpiperazin-2-yl]methyl}-4,5-dimethylpiperazin-2-one dihydrochloride], in experiment [2], the inhibition at 0.04 µM was 67%. Moreover, the EC50 in experiment [3] (setting [6]) was 11 nM; in experiment [3] (setting [5]) it was below 1000 nM.

In the case of `C[C@@H]1CN(CC(=O)N2CC(C)(C)c3nnc(Cc4ccc(F)cc4F)cc32)[C@@H](CN2Cc3cc(O)ccc3C2=O)CN1` [Example 108, 2-{[(2R,5R)-1-(2-{3-[(2,4-Difluorophenyl)methyl]-7,7-dimethyl-5H,6H,7H-pyrrolo[3,2-c]pyridazin-5-yl}-2-oxoethyl)-5-methylpiperazin-2-yl]methyl}-5-hydroxy-2,3-dihydro-1H-isoindol-1-one dihydrochloride], in experiment [2], the inhibition at 0.04 µM turned out to be 88%. Moreover, the EC50 in experiment [3] (setting [6]) is 11 nM; in experiment [3] (setting [5]), below 1000 nM.

Consider `C[C@@H]1CN(CC(=O)N2CC(C)(C)c3ncc(Cc4ccc(F)cc4F)cc32)[C@@H](CN2Cc3ccc(C#N)cc3C2=O)CN1` [Example 112, 2-{[(2R,5R)-1-(2-{6-[(2,4-Difluorophenyl)methyl]-3,3-dimethyl-1H,2H,3H-pyrrolo[3,2-b]pyridin-1-yl}-2-oxoethyl)-5-methylpiperazin-2-yl]methyl}-3-oxo-2,3-dihydro-1H-isoindole-5-carbonitrile dihydrochloride], for which the inhibition at 0.04 µM in experiment [2] was determined as 85%. Moreover, the EC50 was 2.7 nM in experiment [3] (setting [6]) and below 1000 nM in experiment [3] (setting [5]).

With `C[C@@H]1CN(CC(=O)N2CC(C)(C)c3nnc(Cc4ccc(F)cc4F)cc32)[C@@H](CN2Cc3cccc(F)c3C2=O)CN1` [Example 113, 2-{[(2R,5R)-1-(2-{3-[(2,4-Difluorophenyl)methyl]-7,7-dimethyl-5H,6H,7H-pyrrolo[3,2-c]pyridazin-5-yl}-2-oxoethyl)-5-methylpiperazin-2-yl]methyl}-7-fluoro-2,3-dihydro-1H-issoindol-1-one dihydrochloride], the inhibition at 0.04 µM in experiment [2] was 69%. Besides, the EC50 in experiment [3] (setting [6]) was 0.62 nM; in experiment [3] (setting [5]), below 1000 nM.

Turning to `C[C@@H]1CN(CC(=O)N2CC(C)(C)c3ncc(Cc4ccc(F)cc4F)cc32)[C@@H](CN2Cc3c(O)cccc3C2=O)CN1` [Example 118, 2-{[(2R,5R)-1-(2-{6-[(2,4-Difluorophenyl)methyl]-3,3-dimethyl-1H,2H,3H-pyrrolo[3,2-b]pyridin-1-yl}-2-oxoethyl)-5-methylpiperazin-2-yl]methyl}-4-hydroxy-2,3-dihydro-1H-isoindol-1-one dihydrochloride], in experiment [2], the inhibition at 0.04 µM came out at 72%. Further, the EC50 was 6.4 nM in experiment [3] (setting [6]) and below 1000 nM in experiment [3] (setting [5]).

The values are drawn from patent US9617283B2, “Bicyclic heterocycle compounds and their uses in therapy” (ASTEX THERAPEUTICS LIMITED, priority 2012, dated 2017).
